# Experiments:
# TLR8 = molecular target: T1, TLR8 (Homo sapiens, UniProt Q9NR97); experiment: TLR8 human PBMC cell-based assay (antagonist, Compound A stimulated cytokine release); conditions: human PBMCs; TLR8 agonist Compound A 800 nM, 6 hours; cytokines (TNFa and IL 12p40) in supernatant; read-out: TLR-8 EC50
# T1 construct: Human peripheral blood mononuclear cells (PBMCs) consist of lymphocytes, monocytes and dendritic cells that express TLR7, TLR8 and TLR9; endogenous in cells; host or cells: cryopreserved human PBMCs from healthy donors
# T1 sequence (Q9NR97 27-1041): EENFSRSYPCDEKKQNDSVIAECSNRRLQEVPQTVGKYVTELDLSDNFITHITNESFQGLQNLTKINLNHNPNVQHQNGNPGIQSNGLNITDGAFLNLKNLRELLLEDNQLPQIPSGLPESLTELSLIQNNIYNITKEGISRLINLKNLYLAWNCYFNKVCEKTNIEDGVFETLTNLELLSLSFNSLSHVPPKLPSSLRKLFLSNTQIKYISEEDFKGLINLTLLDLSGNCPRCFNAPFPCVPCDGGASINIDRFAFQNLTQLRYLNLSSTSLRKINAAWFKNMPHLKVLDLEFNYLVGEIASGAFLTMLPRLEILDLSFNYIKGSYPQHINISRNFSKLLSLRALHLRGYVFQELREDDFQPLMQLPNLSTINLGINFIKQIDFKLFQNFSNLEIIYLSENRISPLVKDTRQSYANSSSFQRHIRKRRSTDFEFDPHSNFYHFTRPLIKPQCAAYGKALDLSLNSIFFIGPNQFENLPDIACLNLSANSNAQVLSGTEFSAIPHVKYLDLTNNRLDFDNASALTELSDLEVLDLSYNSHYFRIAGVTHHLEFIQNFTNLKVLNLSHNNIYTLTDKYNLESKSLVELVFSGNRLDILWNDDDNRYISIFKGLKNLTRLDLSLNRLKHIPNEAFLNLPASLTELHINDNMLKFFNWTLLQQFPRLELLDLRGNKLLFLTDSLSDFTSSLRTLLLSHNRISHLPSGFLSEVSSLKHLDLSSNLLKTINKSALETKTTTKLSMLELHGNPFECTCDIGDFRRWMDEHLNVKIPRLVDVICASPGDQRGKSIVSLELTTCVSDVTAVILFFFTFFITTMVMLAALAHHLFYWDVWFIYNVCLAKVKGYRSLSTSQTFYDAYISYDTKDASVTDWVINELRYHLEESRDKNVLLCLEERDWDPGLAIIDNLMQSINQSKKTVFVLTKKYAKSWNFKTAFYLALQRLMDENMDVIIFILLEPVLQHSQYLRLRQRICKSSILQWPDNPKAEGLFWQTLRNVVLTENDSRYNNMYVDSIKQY
# How it was run: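 Cryopreserved donor PBMCs (100,000/well, RPMI + 10% FBS) were preincubated 1 h with antagonist (10-point dose response, quadruplicate), then stimulated with Compound A (800 nM final) for 6 h at 37 °C. TNFa and IL-12p40 in supernatants were measured by electrochemiluminescence; sigmoidal fits gave EC50.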
# TLR7 = molecular target: T2, TLR7 (Homo sapiens, UniProt Q9NYK1); experiment: TLR7 human PBMC cell-based assay (antagonist, GS-986 stimulated cytokine release); conditions: human PBMCs; TLR7 agonist GS-986 400 nM, 6 hours; cytokines (IL-6 and IFNα) in supernatant; read-out: TLR-7 EC50
# T2 construct: Human peripheral blood mononuclear cells (PBMCs) consist of lymphocytes, monocytes and dendritic cells that express TLR7, TLR8 and TLR9; endogenous in cells; host or cells: cryopreserved human PBMCs from healthy donors
# T2 sequence (Q9NYK1 27-1049): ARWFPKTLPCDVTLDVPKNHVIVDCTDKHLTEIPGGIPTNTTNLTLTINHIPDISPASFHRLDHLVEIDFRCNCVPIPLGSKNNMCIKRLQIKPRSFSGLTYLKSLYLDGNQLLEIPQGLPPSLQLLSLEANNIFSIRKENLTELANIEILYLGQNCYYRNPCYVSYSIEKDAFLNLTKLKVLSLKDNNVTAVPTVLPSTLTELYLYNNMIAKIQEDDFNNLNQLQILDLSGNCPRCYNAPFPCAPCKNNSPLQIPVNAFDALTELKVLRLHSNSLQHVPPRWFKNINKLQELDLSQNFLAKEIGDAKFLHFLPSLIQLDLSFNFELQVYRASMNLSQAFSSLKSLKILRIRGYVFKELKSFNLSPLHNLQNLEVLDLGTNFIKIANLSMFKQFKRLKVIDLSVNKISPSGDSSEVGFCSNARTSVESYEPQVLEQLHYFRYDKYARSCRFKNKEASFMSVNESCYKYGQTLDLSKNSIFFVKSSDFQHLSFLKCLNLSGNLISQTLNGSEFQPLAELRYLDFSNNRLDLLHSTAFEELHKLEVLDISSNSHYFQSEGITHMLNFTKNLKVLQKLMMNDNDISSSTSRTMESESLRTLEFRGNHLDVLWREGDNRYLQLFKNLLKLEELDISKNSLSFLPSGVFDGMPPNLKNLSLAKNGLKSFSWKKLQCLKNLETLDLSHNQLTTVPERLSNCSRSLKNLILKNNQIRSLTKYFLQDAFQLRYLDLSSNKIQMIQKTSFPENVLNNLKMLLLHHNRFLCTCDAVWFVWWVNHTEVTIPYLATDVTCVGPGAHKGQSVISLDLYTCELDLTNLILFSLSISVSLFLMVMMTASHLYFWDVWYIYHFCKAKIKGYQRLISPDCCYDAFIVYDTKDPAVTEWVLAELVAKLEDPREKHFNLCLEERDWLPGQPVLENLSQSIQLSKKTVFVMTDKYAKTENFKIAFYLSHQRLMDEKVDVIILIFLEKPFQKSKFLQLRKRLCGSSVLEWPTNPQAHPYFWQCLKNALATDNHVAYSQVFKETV
# How it was run: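 EC50 derived by sigmoidal fitting of IL-6 and IFNα levels, quantified by electrochemiluminescence in supernatants of human PBMCs given 400 nM GS-986 for 6 h. Cells (100,000/well in RPMI-1640, 10% FBS) had received test antagonist 1 h beforehand, 10 doses in quadruplicate, at 37 °C.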
Structure (SMILES),EC50 (TLR8) [nM],EC50 (TLR7) [nM]
Cc1c(-c2[nH]c3cc(C(=O)N(C)C4CCNCC4)sc3c2C(C)C)cn2ncnc2c1C [Example 150],2.5,1
Cc1c(-c2[nH]c3cc(C(=O)N(C)C4CCN(C)CC4)sc3c2C(C)C)cn2ncnc2c1C [Example 151],0.6,0.8
Cc1cc(-c2[nH]c3cc(C(=O)N4CCN[C@H](C(F)(F)F)C4)sc3c2C(C)C)cn2ncnc12 [Example 152],58.9,90.9
Cc1cc(-c2[nH]c3cc(C(=O)N(C)[C@@H]4CCCNC4)sc3c2C(C)C)cn2ncnc12 [Example 153],6.5,2.4
"Cc1cc(-c2[nH]c3cc(C4CCNCC4)sc3c2C(C)C)cn2ncnc12 [Example 154, 6-isopropyl-5-(8-methyl-[1,2,4]triazolo[1,5-a]pyridin-6-yl)-2-(piperidin-4-yl)-4H-thieno[3,2-b]pyrrole]",3.6,0.6
Cc1cc(-c2[nH]c3cc(C4CCCNC4)sc3c2C(C)C)cn2ncnc12 (stereo not shown) [Example 155],5.7,4.8
Cc1cc(-c2[nH]c3cc(C4CC5CCC(C4)N5)sc3c2C(C)C)cn2ncnc12 (stereo not shown) [Example 156],8.8,0.1
Cc1cc(-c2[nH]c3cc(C4CCC5CNCC5C4)sc3c2C(C)C)cn2ncnc12 (stereo not shown) [Example 157],31.7,0.3
Cc1cc(-c2[nH]c3cc(C4CC5CNCC5C4)sc3c2C(C)C)cn2ncnc12 (stereo not shown) [Example 158],12.9,0.2
Cc1cc(-c2[nH]c3cc(C4CCCC5(CNC5)C4)sc3c2C(C)C)cn2ncnc12 (stereo not shown) [Example 159],37.5,1.2
Cc1cc(-c2[nH]c3cc(C4CCC5(CC4)CNC5)sc3c2C(C)C)cn2ncnc12 [Example 160],7.1,0.4
Cc1cc(-c2[nH]c3cc(C4CCNC4)sc3c2C(C)C)cn2ncnc12 (stereo not shown) [Example 161],12.4,9.6
Cc1cc(-c2[nH]c3cc(C4CCC5(CNC5)C4)sc3c2C(C)C)cn2ncnc12 (stereo not shown) [Example 162],11.2,0.6
"Cc1cc(-c2[nH]c3cc(C4CCN(CC(N)=O)CC4)sc3c2C(C)C)cn2ncnc12 [Example 164, 2-[4-[6-isopropyl-5-(8-methyl-[1,2,4]triazolo[1,5-a]pyridin-6-yl)-4H-thieno[3,2-b]pyrrol-2-yl]-1-piperidyl]acetamide]",2.8,1.5
Cc1cc(-c2[nH]c3cc(C4=NC5(CCN(CC(N)=O)CC5)CO4)sc3c2C(C)C)cn2ncnc12 [Example 165],116,1.7
Cc1cc(-c2[nH]c3cc(-c4nc(C5CCN(CC(N)=O)CC5)no4)sc3c2C(C)C)cn2ncnc12 [Example 166],5.1,5.1
Cc1cc(-c2[nH]c3cc(C(=O)N(C4CCC4)C4CCN(CC(N)=O)CC4)sc3c2C(C)C)cn2ncnc12 [Example 167],52.7,14
Cc1cc(-c2[nH]c3cc(-c4nnc(C5CCN(CC(N)=O)CC5)s4)sc3c2C(C)C)cn2ncnc12 [Example 168],2.8,2.7

Structure (SMILES),EC50 (TLR8) [nM],EC50 (TLR7) [nM]
CCc1c(-c2cc(C)c3ncnn3c2)[nH]c2cc(-c3nc4ccc(N5CCN(CC(N)=O)CC5)cc4[nH]3)sc12 [Example 169],72,146
Cc1cc(-c2[nH]c3cc(-c4ccc5nc(C6[C@H]7CC[C@H](C7)N6CC(N)=O)[nH]c5c4)sc3c2C(C)C)cn2ncnc12 (stereo partly shown) [Example 170],10.5,1.2
Cc1cc(-c2[nH]c3cc(C4CCCN(CC(N)=O)C4)sc3c2C(C)C)cn2ncnc12 (stereo not shown) [Example 171],14.6,24.5
Cc1cc(-c2[nH]c3cc(-c4cnn(C5CCN(CC(N)=O)CC5)c4)sc3c2C(C)C)cn2ncnc12 [Example 172],6,13.5
Cc1cc(-c2[nH]c3cc(-c4cnc5c(c4)CN(CC(N)=O)CC5)sc3c2C(C)C)cn2ncnc12 [Example 173],4.8,8
Cc1cc(-c2[nH]c3cc(C(=O)N(C)CC4CCN(CC(N)=O)CC4)sc3c2C(C)C)cn2ncnc12 [Example 174],16.8,11.4
Cc1cc(-c2[nH]c3cc(C(=O)N4CCC5(CCN(CC(N)=O)C5)CC4)sc3c2C(C)C)cn2ncnc12 [Example 175],4.1,0.8
Cc1cc(-c2[nH]c3cc(C(=O)N4CCC5(CCN(CC(N)=O)CC5)C4)sc3c2C(C)C)cn2ncnc12 [Example 176],22.2,6.5
Cc1cc(-c2[nH]c3cc(C4CCC5(CC4)CN(CC(N)=O)C5)sc3c2C(C)C)cn2ncnc12 [Example 177],1,0.2
Cc1cc(-c2[nH]c3cc(C(=O)N(C)C4CCN(CC(N)=O)CC4)sc3c2C(C)C)cn2ncnc12 [Example 178],17.4,1.3
Cc1cc(-c2[nH]c3cc(C(=O)N(C)[C@H]4CCN(CC(N)=O)C4)sc3c2C(C)C)cn2ncnc12 [Example 179],33,12.5
Cc1cc(-c2[nH]c3cc(C(=O)N(C)C4CCN(C(=O)CN(C)C)CC4)sc3c2C(C)C)cn2ncnc12 [Example 180],11.5,0.7
Cc1cc(-c2[nH]c3cc(C4CCN(C(=O)CN(C)C)CC4)sc3c2C(C)C)cn2ncnc12 [Example 181],7.7,1
Cc1cc(-c2[nH]c3cc(C(=O)N(C)C4CCN(CC#N)CC4)sc3c2C(C)C)cn2ncnc12 [Example 182],40.2,8.8
Cc1cc(-c2[nH]c3cc(C(=O)N(C)C4CCN(CCC#N)CC4)sc3c2C(C)C)cn2ncnc12 [Example 183],32.4,17.5
Cc1cc(-c2[nH]c3cc(C4CCN(S(=O)(=O)C5CCNCC5)CC4)sc3c2C(C)C)cn2ncnc12 [Example 184],2.8,0.2
Cc1cc(-c2[nH]c3cc(C4CCC5(CC4)CN(C(=O)CN(C)C)C5)sc3c2C(C)C)cn2ncnc12 [Example 185],8.7,0.2
